{"source": "patent US5001048A", "about": "(priority 1987, dated 1991)", "key": {"[1]": {"system": "acetylcholine receptor (AChR)", "type": "binding, Electrophorus electricus", "details": "for % Activity Increase: 24 to 48 hours after immobilization, over nondetergent containing membrane; for stabilization of AChR activity in the membrane (in words): retention of binding activity at immobilization and after storage"}, "[2]": {"system": "immobilized acetylcholine receptor (AChR)", "assay": "AChR sensor alternating current impedance response to agent challenge", "type": "binding, Electrophorus electricus", "details": "for AChR sensor response: 50 to 100 uL", "description": "(§1) All measurements utilized wetted biosensors (i.e., sensors presoaked in deionized water and test buffer). The biosensor was washed with deionized water to a constant output value (that is, it maintained the same impedance value upon further washing). This established a baseline value for the sensor in absence of ligand. Test samples in buffer were then added. Output (changes in impedance, etc) was recorded as a function of time.\n(§2) Two approaches were used to evaluate the functionality of the two types (i.e., receptor and antibody-based) of biosensors. In the first approach, measurements were taken sequentially on control and test sensors (\"chips\") and compared. This approach can be done quickly for rapid evaluation of a sensor (FIGS. 1 and 3). However, background (i.e., non specific binding to the sensor) is not subtracted out automatically. […] This allows for simultaneous challenge (i.e., challenge of both the control and the receptor-containing biosensor at the same time) and background is automatically subtracted out.\n(§3) In the case in which sequential measurements were used, alternating current measurements were made on the sensors, and changes were recorded in impedance (measured in ohms), capacitance or phase angle. Samples in volumes of 5 to 200 microliters (ul) were analyzed; […].\n(§4) Typically, a sample to be tested (i.e., one thought to contain an analyte of interest) was applied to a sensor which had been previously equilibrated with deionized water and readings of output impedance from the sensor were taken. Equilibration to constant readings occurred within 2 to 10 sec. Readings remained stable for at least the 5 minutes during which the output was routinely monitored. The sensor was then washed with deionized water to background equilibrium, sample was again added and readings were taken. In each case 2 to 5 cycles were carried out in this way."}, "[3]": {"assay": "Control sensor (same formulation, no AChR added) impedance response to agent challenge", "details": "50 to 100 uL", "description": "as §1, §2, §3, §4\n^b Control sensor is the same formulation as AChR but with no AChR"}}, "note": "Values joined by “and” are separate entries in the source; they are usually repeats but may differ in a detail not shown here. Equal values may be shown once. Read-outs that look alike come from different tables or passages of the source.", "data": [{"compound": "CCCCCCCCCCCCCCCC[N+](C)(C)C.[Br-]", "note": "[CTAB, cetyltrimethylammonium bromide]", "values": [{"measurement": "% Activity Increase", "setting": "[1]; detergent 0.5% by volume", "result": 4, "unit": "%"}, {"measurement": "% Activity Increase", "setting": "[1]; detergent 1.0% by volume", "result": 18, "unit": "%"}, {"measurement": "% Activity Increase", "setting": "[1]; detergent 2.0% by volume", "result": 28, "unit": "%"}]}, {"compound": "C[C@H](CCC(=O)O)[C@H]1CC[C@H]2[C@@H]3[C@H](O)C[C@@H]4C[C@H](O)CC[C@]4(C)[C@H]3C[C@H](O)[C@]12C", "note": "[Sodium cholate, sodium cholate]", "values": [{"measurement": "% Activity Increase", "setting": "[1]; detergent 1.0% by volume", "result": 110, "unit": "%"}, {"measurement": "% Activity Increase", "setting": "[1]; detergent 2.0% by volume", "result": 145, "unit": "%"}, {"measurement": "stabilization of AChR activity in the membrane (in words)", "setting": "[1]", "result": "best stabilizing detergents"}]}, {"compound": "CCCCCCCC[N+](C)(C)CCCS(=O)(=O)[O-]", "note": "[Zwittergent ™ 3-08, N-octyl-N-N dimethyl-3-amino-1-propane sulfonate]", "values": [{"measurement": "% Activity Increase", "setting": "[1]; detergent 1.0% by volume", "result": "55% and 30%"}, {"measurement": "% Activity Increase", "setting": "[1]; detergent 2.0% by volume", "result": "55% and 38%"}]}, {"compound": "glucose", "values": [{"measurement": "% Change of AChR sensor with respect to control", "setting": "[2]; agent 0.5 ug/ml", "result": 3, "unit": "%"}, {"measurement": "AChR sensor response", "setting": "[2]; agent 0.5 ug/ml", "result": 29, "unit": "K.OMEGA."}, {"measurement": "% Change of AChR sensor with respect to control", "setting": "[2]; agent 5 ug/ml", "result": 0, "unit": "%"}, {"measurement": "AChR sensor response", "setting": "[2]; agent 5 ug/ml", "result": 33, "unit": "K.OMEGA."}, {"measurement": "% Change of AChR sensor with respect to control", "setting": "[2]; agent 50 ug/ml", "result": 6, "unit": "%"}, {"measurement": "AChR sensor response", "setting": "[2]; agent 50 ug/ml", "result": 35, "unit": "K.OMEGA."}, {"measurement": "% Change of AChR sensor with respect to control", "setting": "[2]; agent 500 ug/ml", "result": 5, "unit": "%"}, {"measurement": "AChR sensor response", "setting": "[2]; agent 500 ug/ml", "result": 61, "unit": "K.OMEGA."}, {"measurement": "change in resistance between control and AChR sensors (in words)", "setting": "[2]; dose-response, Table 5", "result": "no change"}, {"measurement": "Control sensor response", "setting": "[3]; agent 0.5 ug/ml", "result": 28, "unit": "K.OMEGA."}, {"measurement": "Control sensor response", "setting": "[3]; agent 5 ug/ml", "result": 33, "unit": "K.OMEGA."}, {"measurement": "Control sensor response", "setting": "[3]; agent 50 ug/ml", "result": 33, "unit": "K.OMEGA."}, {"measurement": "Control sensor response", "setting": "[3]; agent 500 ug/ml", "result": 58, "unit": "K.OMEGA."}]}, {"compound": "octylphenoxy polyethoxyethanol [Triton ™ X-100]", "values": [{"measurement": "% Activity Increase", "setting": "[1]; detergent 0.1% by volume", "result": 12, "unit": "%"}, {"measurement": "% Activity Increase", "setting": "[1]; detergent 0.5% by volume", "result": 55, "unit": "%"}, {"measurement": "% Activity Increase", "setting": "[1]; detergent 1.0% by volume", "result": 85, "unit": "%"}, {"measurement": "% Activity Increase", "setting": "[1]; detergent 2.0% by volume", "result": 110, "unit": "%"}, {"measurement": "stabilization of AChR activity in the membrane (in words)", "setting": "[1]", "result": "best stabilizing detergents"}]}]}
